The values that follow come from patent US7622472B2, “Combination of Src kinase inhibitors and chemotherapeutic agents for the treatment of proliferative diseases” (priority 2003, dated 2009).

Test [1] relates to PC3 human prostate carcinoma xenografts. Description: In vivo antitumor testing, PC3 human prostate carcinoma xenografts in nude mice. The conditions noted are these: single agent compound 1, 10 mpk, orally, twice-a-day, 5-day-on, 2-day-off, 14 days. An excerpt:
Tumors were propagated as subcutaneous transplants using tumor fragments obtained from donor mice.
For treatment of early-stage tumors, the animals were again pooled before distribution to the various treatment and control groups. For treatment of animals with advanced-stage disease, tumors were allowed to grow to the pre-determined size window (tumors outside the range were excluded) and animals were evenly distributed to various treatment and control groups. Treatment of each animal was based on individual body weight. Treated animals were checked daily for treatment related toxicity/mortality. Each group of animals was weighed before the initiation of treatment (Wt1) and then again following the last treatment dose (Wt2). The difference in body weight (Wt2−Wt1) provides a measure of treatment-related toxicity. Tumor response was determined by measurement of tumors with a caliper twice a week, until the tumors reach a predetermined “target” size of 1 gm. Tumor weights (mg) were estimated from the formula: Tumor weight=(length×width2)÷2 Antitumor activity was evaluated at the maximum tolerated dose (MTD) which is defined as the dose level immediately below which excessive toxicity (i.e. more than one death) occurred. […] When death occurs, the day of death was recorded.
In general terms: Xenograft models place foreign cells or tissue in a host animal.

The subject of test [2] is Src family kinases (SFKs, including: Fyn, Yes, Yrk, Blk, Fgr, Hck, Lyn, and Frk subfamily members Frk/Rak and Iyk/Bsk). Put plainly: Inhibition of Src family kinases (statement, no method). It is filed as biochemical. To be noted: competes with ATP for the ATP-binding site in the kinase domain.

Consider `Cc1nc(Nc2ncc(C(=O)Nc3c(C)cccc3Cl)s2)cc(N2CCN(CCO)CC2)n1` [Compound 1, ′N-(2-Chloro-6-methylphenyl)-2-[[6-[4-(2-hydroxyethyl)-1-piperazinyl]-2-methyl-4-pyrimidinyl]amino]-5-thiazolecarboxamide], for which, in test [1], the “growth delay (T-C)” value came out at 4.5 days and the “tumor growth inhibition (% T/C)” value is on record as 58%. Further, in test [2], the “inhibition of Src family kinases” value is listed as “potently inhibits”.
